Test results reported in patent publication US20190307754A1, “PDE9 INHIBITORS FOR TREATMENT OF PERIPHERAL DISEASES” (IMARA, INC., priority 2016, published 2019).
Where “and” joins values, the source holds several entries; their conditions need not be identical. Equal entries are not always repeated. Where two headings read alike, the source gives them in different places.

Experiments:
C57Bl/6J mice = experiment: Locomotor activity and contextual fear conditioning in C57Bl/6J mice; type: in vivo; conditions: 10 or 30 mg/kg/day, gavage, 5 days
Protocol: The exposure of both compounds was also evaluated in the plasma, brain, and eye. […] During the treatment period all animals were assessed for contextual fear conditioning and a subset of 7 animals per group was evaluated for locomotor activity. On Day 5, plasma, brain, and eye tissue were collected 30 minutes after dosing from 3 animals per treated group to measure concentrations of test item.

[1] = Brain and plasma concentrations after single IV dose in rat; type: in vivo; conditions: for Mean Plasma/Brain Ratio / Concentration Brain / Concentration Plasma / Plasma/Brain Ratio: 3 mg/kg IV; for Concentration Brain / Concentration Plasma / Plasma/Brain Ratio: individual animals, 3 mg/kg
Protocol: (§1) Blood samples were taken at 2 minutes (IV only), then 8, 15, 30 minutes, and 1, 2, 4, 8, and 24 hours after dosing and analyzed for key PK parameters. In the rats, brain samples were taken at 24 hours and analyzed for Compound P3.1. To evaluate the penetration of Compound P3.1 across the blood-brain barrier (BBB), 10 additional rats received IV Compound P3.1 3 mg/kg and plasma and brain concentrations of Compound P3.1 were determined from 2 animals at 15 minutes, 30 minutes and 1, 2, and 4 hours after dosing.

HbSS-Townes mice = experiment: Microvascular stasis and hematology in HbSS-Townes mice; type: in vivo
Protocol: The ability of Compound P3.1 to reduce vaso-occulsion was assessed in HbSS-Townes transgenic sickle mice after transient hypoxia and re-oxygenation. This study assessed the effects of repeated (10 days) oral dosing of Compound P3.1 and HU on microvascular stasis and other hematological markers of sickle cell disease, after transient hypoxia and re-oxygenation, in Townes transgenic sickle mice, a mouse model of sickle cell disease (Hba^tm1(HBA)Tow Hbb^tm2(HBG1,HBB*)Tow/Hbb^tm3(HBG1,HBB)Tow/J). HbSS-Townes mice were divided into groups of 3 mice and were then dosed orally via drinking water with Compound P3.1 at 10 mg/kg/day, Compound P3.1 at 30 mg/kg/day, HU (100 mg/kg/day), or a combination of Compound P3.1 and HU (at doses of 30 and 100 mg/kg/day, respectively) for 10 days. A final group received water containing 0.08% methylcellulose, the vehicle used to prepare the test items, and served as controls. On Day 7 of treatment, the mice were implanted with dorsal skin-fold chambers (DSFC), and on Day 10 of treatment, 20-23 flowing subcutaneous venules in the DSFC window were selected and mapped. After venule selection and mapping, mice were placed in a chamber and exposed to a hypoxic atmosphere (7% O2/93% N2) for 1 hour, after which they were returned to room air. All of the selected venules were re-examined after 1 and 4 hours of re-oxygenation in room air and the number of static (no flow) venules was counted and expressed as percent stasis. On completion of these measurements, blood was collected for clinical pathology with a focus on hematological measures associated with sickle cell disease.

[2] = Pharmacokinetics of single oral and IV dose in Sprague Dawley rats; type: in vivo
Protocol: as §1

[3] = Fourteen-day repeat-dose toxicity study in beagle dogs; type: in vivo, dog; conditions: beagle, in vivo, dog; for NOAEL at 14 days: both sexes, oral, males and females, 14-day; for Cmax / AUC(0-t): po; for AUC(0-t): read-out: AUC0-24
Protocol: (§2) In a GLP 14-day repeat-dose toxicity study in dogs, Compound P3.1 was orally administered at doses of 0, 10, 35, or 75 mg/kg/day. […] The no-observed-adverse-effect level (NOAEL) was considered to be 35 mg/kg/day in males and females.

dog = experiment: as above; type: in vivo
Protocol: as §2

Han Wistar Rats = experiment: Neurofunctional study in Han Wistar rats; type: in vivo, rat
Protocol: The safety pharmacology assessment of Compound P3.1 included an in vitro hERG assay, neurofunctional and respiratory studies in rats, and a cardiovascular study in beagle dogs.
Single oral doses of 250, 500, and 1000 mg/kg Compound P3.1 in Han Wistar Rats had no effect on clinical observations, home cage observations, handheld observations, or body temperatures.

[4] = Stability study of drug substance (ambient and 40-45 °C); type: physicochemical; conditions: ambient temperature and 40° C.−45° C., 3-month period
Protocol: A stability study has been completed on Compound P3.1. Samples of Compound P3.1 were aliquoted into double-walled polyethylene pouches, which were tied off and then heat-sealed in an aluminum pouch. Samples were stored at ambient temperature and at 40° C.−45° C. (no humidity control) with testing performed over a 3-month period.

[5] = Compound P3.1 30 mg/kg/day, HU 100 mg/kg/day, or both, 10 days
[6] = Sprague Dawley rats, 10 mg/kg oral
[7] = rat, blood, Sprague Dawley rats, 3 mg/kg IV
[8] = rat, blood, Sprague Dawley rats, 10 mg/kg oral
[9] = female, 10 mg, females, 10 mg, Day 1
[10] = female, 10 mg, females, 10 mg, Day 14
[11] = female, 35 mg, females, 35 mg, Day 1
[12] = female, 35 mg, females, 35 mg, Day 14
[13] = female, 75 mg/kg/day, females, 75 mg, Day 1
[14] = female, 75 mg/kg/day, females, 75 mg, Day 14
[15] = male, 10 mg, males, 10 mg, Day 1
[16] = male, 10 mg, males, 10 mg, Day 14
[17] = male, 35 mg, males, 35 mg, Day 1
[18] = male, 35 mg, males, 35 mg, Day 14
[19] = male, 75 mg/kg/day, males, 75 mg, Day 1
[20] = male, 75 mg/kg/day, males, 75 mg, Day 14

Question: Which results are given for `C[C@@H]1CN(Cc2ncccn2)C[C@H]1c1cn2c(C3CCOCC3)ncc2c(=O)[nH]1` (single isomer, unassigned) [Compound P3.1]?
Answer: locomotor activity or memory (C57Bl/6J mice): no effect; Mean Plasma/Brain Ratio ([1]; 0.25 h post dose): 20.2; Concentration Brain ([1]; 0.25 h post dose): 111 and 112; Concentration Plasma ([1]; 0.25 h post dose): 2400 and 2110; Plasma/Brain Ratio ([1]; 0.25 h post dose): 21.6 and 18.8; Mean Plasma/Brain Ratio ([1]; 0.5 h post dose): 25.1; Concentration Brain ([1]; 0.5 h post dose): 82.5 and 50.7; Concentration Plasma ([1]; 0.5 h post dose): 1790 and 1450; Plasma/Brain Ratio ([1]; 0.5 h post dose): 21.7 and 28.6; Mean Plasma/Brain Ratio ([1]; 1 h post dose): 23.1; Concentration Brain ([1]; 1 h post dose): 28.6 and 44.1; Concentration Plasma ([1]; 1 h post dose): 647 and 1040; Plasma/Brain Ratio ([1]; 1 h post dose): 22.6 and 23.6; Mean Plasma/Brain Ratio ([1]; 2 h post dose): 33.1; Concentration Brain ([1]; 2 h post dose): 8.88 and 5.34; Concentration Plasma ([1]; 2 h post dose): 245 and 206; Plasma/Brain Ratio ([1]; 2 h post dose): 27.6 and 38.6; Concentration Plasma ([1]; 4 h post dose): 59.8 and 107; brain concentration at 4 hours postdose ([1]; IV dosing, 4 hours postdose): no longer detectable in the brain; microvascular stasis (HbSS-Townes mice; 10 mg/kg/day, 10 days, 1-hour time point): reduced stasis statistically significantly; microvascular stasis (HbSS-Townes mice; 10 mg/kg/day, 10 days, 4 hours): not at 4 hours; microvascular stasis (HbSS-Townes mice; 30 mg/kg/day Compound P3.1 or 100 mg/kg HU, drinking water, 10 days, 1 and 4 hours post hypoxia): statistically significant reductions in stasis; total WBC numbers (HbSS-Townes mice; Compound P3.1 30 mg/kg/day or HU 100 mg/kg/day, 10 days): reduce total WBC numbers; vessel occlusion induced by transient hypoxia and re-oxygenation (HbSS-Townes mice; Compound P3.1 30 mg/kg/day, HU 100 mg/kg/day, or both): effectively reduced; number of HbF positive red cells (HbSS-Townes mice; [5]): increase the number of HbF positive red cells; proportion of sickled RBCs (HbSS-Townes mice; [5]): reduce the proportion of sickled RBCs; Cl_obs ([2]; Sprague Dawley rats, 3 mg/kg IV): 0.972 L/h/kg; Flast [2, 6]: 44.6%; Vss obs [2, 6]: 44.6 L/kg; bioavailability ([2]; Sprague Dawley, rat, plasma, po, 10 mg/kg, read-out: oral bioavailability Flast): 63.4%; AUC(0-t) [2, 7]: 3.11 µg·h/mL; C0 [2, 7]: 4.82 µg/mL; MRT [2, 7]: 1.44 h; half-life [2, 7]: 2.81 h; Vd ([2]; rat, blood, Sprague Dawley rats, 3 mg/kg IV, read-out: Vss obs): 1.65 L/kg; AUC(0-t) [2, 8]: 4.62 µg·h/mL; C0 [2, 8]: 1.11 µg/mL; Tmax [2, 8]: 1 h; half-life [2, 8]: 3.01 h; continuously exposed out to ([2]; rats, 10 mg/kg oral): 8 h; NOAEL at 14 days ([3]; read-out: no-observed-adverse-effect level (NOAEL)): 35 mg/kg/day; NOAEL at 14 days ([3]; read-out: no-observed-adverse-effect-level (NOAEL)): 35 mg/kg; Cmax [3, 9]: 1.97 µg/mL; AUC(0-t) [3, 9]: 24.8 µg·h/mL; Cmax [3, 10]: 3.78 µg/mL; AUC(0-t) [3, 10]: 25.4 µg·h/mL; Cmax [3, 11]: 5.18 µg/mL; AUC(0-t) [3, 11]: 66.7 µg·h/mL; Cmax [3, 12]: 10 µg/mL; AUC(0-t) [3, 12]: 87.9 µg·h/mL; Cmax [3, 13]: 13.2 µg/mL; AUC(0-t) [3, 13]: 152 µg·h/mL; Cmax [3, 14]: 22.1 µg/mL; AUC(0-t) [3, 14]: 224 µg·h/mL; Cmax [3, 15]: 2.73 µg/mL; AUC(0-t) [3, 15]: 29.7 µg·h/mL; Cmax [3, 16]: 3.12 µg/mL; AUC(0-t) [3, 16]: 24.1 µg·h/mL; Cmax [3, 17]: 11.2 µg/mL; AUC(0-t) [3, 17]: 114 µg·h/mL; Cmax [3, 18]: 13.1 µg/mL; AUC(0-t) [3, 18]: 98.6 µg·h/mL; Cmax [3, 19]: 11 µg/mL; AUC(0-t) [3, 19]: 137 µg·h/mL; Cmax [3, 20]: 18.3 µg/mL; AUC(0-t) [3, 20]: 193 µg·h/mL; deaths (dog; dog, 10, 35, or 75 mg/kg/day, 14 days): No deaths were observed at any dose; findings (dog; dog, 35 or 75 mg/kg/day, oral, 14 days): emesis, liquid/loose feces, reduced food intake, and losses in body weight in some individuals; mean exposures vs dose (dog; dog, Days 1 and 14): increased with dose in a broadly proportionate manner; adverse finding (Han Wistar Rats; >500 mg/kg, 0.5 and 24 hours post dosing): increased incidence of no visible-approach response; non-adverse findings at 250 mg/kg (Han Wistar Rats; single oral 250 mg/kg): transient decrease in sensory response (approach response); non-adverse findings at 500 and 1000 mg/kg (Han Wistar Rats; single oral 500 and 1000 mg/kg): decreases in body weight/weight gain, motor activity (number of rears), and sensory response (tail pinch response); clinical, home cage, handheld observations, body temperatures (Han Wistar Rats; single oral doses of 250, 500, and 1000 mg/kg): no effect; stability: appearance and purity of drug substance [4]: no changes to appearance or purity
